This passage reports IC50 results from patent publication US10112929B2, “Lactams as inhibitors of rock” (BRISTOL-MYERS SQUIBB COMPANY, priority 2015, dated 2018).

SMILES strings stand for the structures. Bounds are passed on as bounds.
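Further: rho kinase enzyme reaction halted with EDTA, phospho- and non-phospho peptide separated for read-out, kinase activity inhibition derived across a dose-response series, DMSO under 2%.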

The target of this experiment is ROCK2 (Homo sapiens (Human), UniProt O75116). The experiment in a line: biochemical.
Chain of ROCK2 (O75116 whole entry, species assumed): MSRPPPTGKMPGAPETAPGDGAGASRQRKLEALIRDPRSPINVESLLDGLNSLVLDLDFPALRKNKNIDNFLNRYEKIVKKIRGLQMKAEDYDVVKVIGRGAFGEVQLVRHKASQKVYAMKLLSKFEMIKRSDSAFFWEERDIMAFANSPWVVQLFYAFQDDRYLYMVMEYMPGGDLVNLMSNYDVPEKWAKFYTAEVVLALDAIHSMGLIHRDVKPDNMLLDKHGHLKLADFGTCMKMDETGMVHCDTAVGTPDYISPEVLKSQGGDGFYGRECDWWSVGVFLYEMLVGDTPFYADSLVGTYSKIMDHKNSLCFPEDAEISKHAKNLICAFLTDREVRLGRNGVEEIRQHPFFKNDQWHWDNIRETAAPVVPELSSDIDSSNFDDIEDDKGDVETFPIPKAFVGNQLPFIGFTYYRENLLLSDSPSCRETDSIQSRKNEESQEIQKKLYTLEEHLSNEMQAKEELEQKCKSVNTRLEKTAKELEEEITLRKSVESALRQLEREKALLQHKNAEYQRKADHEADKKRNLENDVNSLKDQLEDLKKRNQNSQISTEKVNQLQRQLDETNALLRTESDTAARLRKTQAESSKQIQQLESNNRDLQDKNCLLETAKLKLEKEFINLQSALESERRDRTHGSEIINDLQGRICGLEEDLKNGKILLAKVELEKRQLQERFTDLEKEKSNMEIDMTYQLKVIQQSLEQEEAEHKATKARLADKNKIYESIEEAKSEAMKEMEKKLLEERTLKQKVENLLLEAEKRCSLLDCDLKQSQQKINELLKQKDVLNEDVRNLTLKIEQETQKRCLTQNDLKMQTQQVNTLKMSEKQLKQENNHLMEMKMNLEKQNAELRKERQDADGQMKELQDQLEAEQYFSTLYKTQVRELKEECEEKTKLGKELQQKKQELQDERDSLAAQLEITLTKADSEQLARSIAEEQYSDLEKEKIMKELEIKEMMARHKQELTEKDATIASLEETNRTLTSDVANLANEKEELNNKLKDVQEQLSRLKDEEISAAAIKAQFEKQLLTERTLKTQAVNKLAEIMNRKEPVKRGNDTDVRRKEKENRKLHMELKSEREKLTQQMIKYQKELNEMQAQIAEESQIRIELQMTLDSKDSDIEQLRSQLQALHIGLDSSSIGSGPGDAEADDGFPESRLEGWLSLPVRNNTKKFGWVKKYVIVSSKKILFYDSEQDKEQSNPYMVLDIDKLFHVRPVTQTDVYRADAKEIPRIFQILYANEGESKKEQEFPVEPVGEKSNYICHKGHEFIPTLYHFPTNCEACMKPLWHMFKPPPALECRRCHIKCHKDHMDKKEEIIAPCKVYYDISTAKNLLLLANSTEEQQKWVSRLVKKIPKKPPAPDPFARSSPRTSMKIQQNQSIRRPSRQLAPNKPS
Turning to `COc1cc(NC2CCN(c3ccc(-c4cn[nH]c4)c(Cl)c3)C2=O)ccc1F` (single isomer, unassigned) [Example 161, 1-(3-chloro-4-(1H-pyrazol-4-yl)phenyl)-3-((4-fluoro-3-methoxyphenyl)amino) pyrrolidin-2-one], the IC50 is < 10 nM.

`COc1cc(NC2CCN(c3ccc(-c4cn[nH]c4)cc3Cl)C2=O)ccc1F` (single isomer, unassigned) [Example 162, 1-(2-chloro-4-(1H-pyrazol-4-yl)phenyl)-3-((4-fluoro-3-methoxyphenyl)amino) pyrrolidin-2-one] showed a concentration for half-maximal inhibition (IC50) of 100 to 2200 nM.

`COc1cccc(NC2CCN(c3ccc(-c4cn[nH]c4)c(Cl)c3)C2=O)c1` (single isomer, unassigned) [Example 164, 1-(3-chloro-4-(1H-pyrazo1-4-yl)phenyl)-3 ((3-methoxyphenyl)amino)pyrrolidin-2-one]: the half-maximal inhibitory concentration (IC50) was < 10 nM.

Turning to `COc1cccc(NC2CCN(c3ccc(-c4cn[nH]c4)c(Cl)c3)C2=O)c1` (single isomer, unassigned) [Example 165, 1-(3-chloro-4-(1H-pyrazo1-4-yl)phenyl)-3 ((3-methoxyphenyl)amino)pyrrolidin-2-one], the IC50 fell in the range of 10 to 100 nM.

`COc1cccc(NC2CCN(c3ccc(-c4cn[nH]c4)cc3Cl)C2=O)c1` (single isomer, unassigned) [Example 166, 1-(2-chloro-4-(1H-pyrazo1-4-yl)phenyl)-3 ((3-methoxyphenyl)amino)pyrrolidin-2-one] returned an IC50 of 100 to 2200 nM.

`COc1cc(F)cc(NC2CCN(c3ccc(-c4cn[nH]c4)cc3Cl)C2=O)c1` (single isomer, unassigned) [Example 168, 1-(2-chloro-4-(1H-pyrazol-4-yl)phenyl)-3 ((3-fluoro-5-methoxyphenyl)amino) pyrrolidin-2-one]: the IC50 was 100 to 2200 nM.

`COc1cccc(OC2CCN(c3ccc(-c4cn[nH]c4)c(OC)n3)C2=O)c1` (single isomer, unassigned) [Example 170, 1-(6-methoxy-5-(1H-pyrazol-4-yl)pyridin 2-yl)-3-(3-methoxyphenoxy)pyrrolidin-2-one]: the IC50 is 10 to 100 nM.

On to `COc1cccc(OC2CCN(c3ccc(-c4cn[nH]c4)c(OC)n3)C2=O)c1` (single isomer, unassigned) [Example 171, 1-(6-methoxy-5-(1H-pyrazol-4-yl)pyridin 2-yl)-3-(3-methoxyphenoxy)pyrrolidin-2-one], for which the IC50 is < 10 nM.

`COc1cc(F)cc(OC2CCN(c3ccc(-c4cn[nH]c4)c(OC)n3)C2=O)c1` (single isomer, unassigned) [Example 172, 3-(3-fluoro-5-methoxyphenoxy)-1-(6-methoxy-5-(1H-pyrazol-4-yl)pyridin-2-yl)pyrrolidin-2-one] had a half-maximal inhibitory concentration (IC50) of 10 to 100 nM.

Consider `COc1cc(F)cc(OC2CCN(c3ccc(-c4cn[nH]c4)c(OC)n3)C2=O)c1` (single isomer, unassigned) [Example 173, 3-(3-fluoro-5-methoxyphenoxy)-1-(6-methoxy-5-(1H-pyrazol-4-yl)pyridin-2-yl)pyrrolidin-2-one], for which the half-inhibitory concentration (IC50) was < 10 nM.

As for `COc1cccc(NC2CCN(c3ccc(-c4cn[nH]c4)c(C(F)F)c3)C2=O)c1` (single isomer, unassigned) [Example 175, 1-(3-(difluoromethyl)-4-(1H-pyrazol-4-yl)phenyl)-3-((3-methoxyphenyl)amino) pyrrolidin-2-one], the IC50 was in the range of 100 to 2200 nM.

Regarding `COc1cccc(NC2CCN(c3ccc(-c4cn[nH]c4)c(C(F)F)c3)C2=O)c1` (single isomer, unassigned) [Example 176, 1-(3-(difluoromethyl)-4-(1H-pyrazol-4-yl)phenyl)-3-((3-methoxyphenyl)amino) pyrrolidin-2-one], the IC50 lay within 10 to 100 nM.

`COc1cc(F)cc(NC2CCN(c3ccc(-c4cn[nH]c4)c(C(F)F)c3)C2=O)c1` (single isomer, unassigned) [Example 177, 1-(3-(difluoromethyl)-4-(1H-pyrazol-4-yl)phenyl)-3-((3-fluoro-5-methoxyphenyl)amino)pyrrolidin-2-one] yielded an IC50 of 100 to 2200 nM.

As for `COc1cc(F)cc(NC2CCN(c3ccc(-c4cn[nH]c4)c(C(F)F)c3)C2=O)c1` (single isomer, unassigned) [Example 178, 1-(3-(difluoromethyl)-4-(1H-pyrazol-4-yl)phenyl)-3-((3-fluoro-5-methoxyphenyl)amino)pyrrolidin-2-one], the IC50 lay within 10 to 100 nM.

`COc1cc(NC2CCN(c3ccc(-c4cn[nH]c4)c(C(F)F)c3)C2=O)ccc1F` (single isomer, unassigned) [Example 179, 1-(3-(difluoromethyl)-4-(1H-pyrazol-4-yl)phenyl)-3-((4-fluoro-3-methoxyphenyl)amino)pyrrolidin-2-one]: the IC50 was 10 to 100 nM.

In turn, `COc1cc(NC2CCN(c3ccc(-c4cn[nH]c4)c(C(F)F)c3)C2=O)ccc1F` (single isomer, unassigned) [Example 180, 1-(3-(difluoromethyl)-4-(1H-pyrazol-4-yl)phenyl)-3-((4-fluoro-3-methoxyphenyl)amino)pyrrolidin-2-one] returned an IC50 of 100 to 2200 nM.

`COCc1cc(N2CCC(Nc3ccc(F)c(OC)c3)C2=O)ccc1-c1cn[nH]c1` (single isomer, unassigned) [Example 181, 3-((4-fluoro-3-methoxyphenyl)amino)-1-(3-(methoxymethyl)-4-(1H-pyrazol-4-yl)phenyl)pyrrolidin-2-one] returned a half-inhibitory concentration (IC50) of 100 to 2200 nM.

Regarding `COCc1cc(N2CCC(Nc3cccc(OC)c3)C2=O)ccc1-c1cn[nH]c1` (single isomer, unassigned) [Example 183, 1-(3-(methoxymethyl)-4-(1H-pyrazol-4-yl)phenyl)-3-((3-methoxyphenyl)amino) pyrrolidin-2-one], the 50% inhibitory concentration (IC50) was 100 to 2200 nM.

On to `COCc1cc(N2CCC(Nc3cccc(OC)c3)C2=O)ccc1-c1cn[nH]c1` (single isomer, unassigned) [Example 184, 1-(3-(methoxymethyl)-4-(1H-pyrazol-4-yl)phenyl)-3-((3-methoxyphenyl)amino) pyrrolidin-2-one], for which the half-inhibitory concentration (IC50) lay within 10 to 100 nM.

The molecule `COCc1cc(N2CCC(Nc3cc(F)cc(OC)c3)C2=O)ccc1-c1cn[nH]c1` (single isomer, unassigned) [Example 185, 3-((3-fluoro-5-methoxyphenyl)amino)-1-(3-(methoxymethyl)-4-(1H-pyrazol-4-yl)phenyl)pyrrolidin-2-one] gave an IC50 of 100 to 2200 nM.

Consider `COCc1cc(N2CCC(Nc3cc(F)cc(OC)c3)C2=O)ccc1-c1cn[nH]c1` (single isomer, unassigned) [Example 186, 3-((3-fluoro-5-methoxyphenyl)amino)-1-(3-(methoxymethyl)-4-(1H-pyrazol-4-yl)phenyl)pyrrolidin-2-one], for which the IC50 was in the range of 10 to 100 nM.

In turn, `COc1cccc(NC2CCN(c3ccc(-c4cn[nH]c4)c(C)n3)C2=O)c1` (single isomer, unassigned) [Example 188, 3-((3-methoxyphenyl)amino)-1-(6-methyl-5-(1H-pyrazol-4-yl)pyridin-2-yl)pyrrolidin-2-one] registered an IC50 of 10 to 100 nM.

On to `COc1cccc(NC2CCN(c3ccc(-c4cn[nH]c4)c(C)n3)C2=O)c1` (single isomer, unassigned) [Example 189, 3-((3-methoxyphenyl)amino)-1-(6-methyl-5-(1H-pyrazol-4-yl)pyridin-2-yl)pyrrolidin-2-one], for which the IC50 is < 10 nM.

`Cc1nc(N2CCC(Nc3cccc(OCC4CC4)c3)C2=O)ccc1-c1cn[nH]c1` (single isomer, unassigned) [Example 190, 3-((3-(cyclopropylmethoxy)phenyl)amino)-1-(6-methyl-5-(1H-pyrazol-4-yl)pyridin-2-yl)pyrrolidin-2-one] displayed a 50% inhibitory concentration (IC50) of 10 to 100 nM.

`COc1cc(F)cc(NC2CCN(c3ccc(-c4cn[nH]c4)c(C)n3)C2=O)c1` (single isomer, unassigned) [Example 192, 3-((3-fluoro-5-methoxyphenyl)amino)-1-(6-methyl-5-(1H-pyrazol-4-yl)pyridin-2-yl)pyrrolidin-2-one] registered an IC50 of 10 to 100 nM.

Take `COc1cc(F)cc(NC2CCN(c3ccc(-c4cn[nH]c4)c(C)n3)C2=O)c1` (single isomer, unassigned) [Example 193, 3-((3-fluoro-5-methoxyphenyl)amino)-1-(6-methyl-5-(1H-pyrazol-4-yl)pyridin-2-yl)pyrrolidin-2-one]: the IC50 is < 10 nM.

`COc1cc(NC2CCN(c3ccc(-c4cn[nH]c4)c(C)n3)C2=O)ccc1F` (single isomer, unassigned) [Example 194, 3-((4-fluoro-3-methoxyphenyl)amino)-1-(6-methyl-5-(1H-pyrazol-4-yl)pyridin-2-yl)pyrrolidin-2-one] gave a half-inhibitory concentration (IC50) of 10 to 100 nM.

Turning to `COc1cccc(NC2CCN(c3ccc(-c4cn[nH]c4)c(OC)n3)C2=O)c1` (single isomer, unassigned) [Example 196, 1-(6-methoxy-5-(1H-pyrazol-4-yl)pyridin-2-yl)-3-((3-methoxyphenyl)amino) pyrrolidin-2-one], the IC50 is < 10 nM.

Take `COc1cc(F)cc(NC2CCN(c3ccc(-c4cn[nH]c4)c(OC)n3)C2=O)c1` (single isomer, unassigned) [Example 198, 3-((3-fluoro-5-methoxyphenyl)amino)-1-(6-methoxy-5-(1H-pyrazol-4-yl)pyridin-2 yl)pyrrolidin-2-one]: the IC50 is < 10 nM.

The molecule `Cc1nc(N2CCC(Nc3cccc(OC(F)F)c3)C2=O)ccc1-c1cn[nH]c1` (single isomer, unassigned) [Example 201, 3-((3-(difluoromethoxy)phenyl)amino)-1-(6-methyl-5-(1H-pyrazol-4-yl)pyridin-2-yl)pyrrolidin-2-one] returned an IC50 of 10 to 100 nM.

The molecule `CCc1cc(N2CCC(Nc3cccc(OC)c3)C2=O)ncc1-c1cn[nH]c1` (single isomer, unassigned) [Example 203, 1-(4-ethyl-5-(1H-pyrazol-4-yl)pyridin-2-yl)-3-((3-methoxyphenyl)amino) pyrrolidin-2-one] yielded an IC50 of 100 to 2200 nM.

`Cc1cc(N2CCC(Nc3cccc(OCC4CC4)c3)C2=O)ncc1-c1cn[nH]c1` (single isomer, unassigned) [Example 206, 3-((3-(cyclopropylmethoxy)phenyl)amino)-1-(4-methyl-5-(1H-pyrazol-4-yl)pyridin-2-yl)pyrrolidin-2-one] yielded an IC50 of 100 to 2200 nM.
